Reference: publication PMC5302413, “Bifunctional peptide-based opioid agonist/nociceptin antagonist ligand for dual treatment of nociceptive and neuropathic pain” (Pain, 2016)
Values joined by “and” are separate entries in the source; they are usually repeats but may differ in a detail not shown here. Equal entries are not always repeated. Structures can show the parent of a compound that is named as a salt. Numbered stars: 1 amine (or outer) side, 2 acyl side, 3 side chain; on linkers, the order of the positions; unused ones are H or OH. Square brackets hold non-standard residues; d marks the D form. Peptide text beside a SMILES is read from it. X1 = O=C1C(N[*:1])Cc2ccccc2CN1CCC(=O)[*:2]; Dmt = Cc1cc(O)cc(C)c1C[C@H](N)C(=O)O

What was measured:
[1] = Whole-body plethysmography, respiratory effects in rats; conditions: Sprague-Dawley, rat, in vivo, iv; for ED50: rats, plethysmography at Tmax, sigmoidal Emax model, mean (CV%)
[2] = system: Sprague-Dawley rats; assay: as above; conditions: for Time after injection at which significant increase in TI started: IV 17.52 μmol/kg morphine, 17.62 μmol/kg tramadol, 0.34 μmol/kg KGNOP1 or KGOP1; for Inspiratory time E0 / Inspiratory time Emax / Peak of respiratory effects (time) / TI, AUC method, in comparison to controls / Effect on expiratory time (TE) versus baseline, time-course / Effect on minute volume (VM) versus baseline, time-course: IV; for Inspiratory time E0 / Inspiratory time Emax: rats, TI(Tmax) − TI(T0), sigmoidal Emax model, mean (CV%); for Peak of respiratory effects (time) / TI, AUC method, in comparison to controls: time-course study 3A; for Effect on expiratory time (TE) versus baseline, time-course: KGNOP1 from 5 to 240 min, KGOP1 from 15 to 120 min; for Effect on minute volume (VM) versus baseline, time-course: morphine at 30 min, KGNOP1 from 5 to 45 min, KGOP1 at 15 min
[3] = system: SN-CCI Sprague-Dawley rats; assay: Cold-plate test, cold hyperalgesia in SN-CCI rats; assay type: in vivo, rat; conditions: for Persistence of effects on cold hyperalgesia after injection: IV 0.34 μmol/kg KGNOP1 or KGNOP3 (persisted up to), 17.62 μmol/kg tramadol (declined after), observation 420 min; for Cold hyperalgesia Tmax (time of peak effect): IV 0.34 μmol/kg KGNOP1 or KGNOP3, 17.62 μmol/kg tramadol
Description: We used the chronic constriction injury of the sciatic nerve (SN-CCI) model to induce neuropathic pain in rats.[4] The rat's right sciatic nerve was exposed under anesthesia using ketamine (70 mg/kg intraperitoneally [IP]) and xylazine (10 mg/kg IP). Subsequently, the nerve was ligated proximally to the sciatic trifurcation with four 4-0 chromic gut sutures (Ethicon, Issy-les-Moulineaux, France). Rats were then returned to their individual cages for a recovery period of 14 days, allowing complete anesthesia washout and neuropathic pain development.
The individual SN-CCI rats were kept inside a transparent cylinder on the cooled surface of the plate (4.0°C ± 0.2°C; Panlab, Barcelona, Spain).[15] The total leg lift counts of the right hind paw were counted for 5 minutes. Counts were excluded when the hind paw was lifted while walking. The first measurement was performed after a 10-minute period of accommodation while the animal was quiet. Drugs were intravenously (IV) administered at T0. […] The percentage of decrease in leg lift counts was calculated based on the following equation: [drawing 1]
Cold hyperalgesia was assessed during 420 minutes after the drug administration. Tmax was determined for each drug.

[4] = system: Sprague-Dawley rats; assay: Benefit-to-respiratory toxicity ratio (ED50 ratio); conditions: from ED50 on cold hyperalgesia and ED50 on VM, SN-CCI rat, IV
[5] = cited from earlier work
[6] = cited from earlier work; for Blood–brain barrier transport mechanism: in vitro cell-based human model with BBB-PAMPA
[7] = system: Sprague-Dawley rats; assay: Hot-plate test, thermal nociception in rats; assay type: in vivo, rat; conditions: IV, sigmoidal Emax model
Description: The individual rats were kept inside a transparent cylinder on the heated surface of the plate (52.0°C ± 0.2°C; Panlab).[27] Licking, brisk shaking of the hind paw, and jumping were considered as signs of thermal nociception. The cut-off time was set at 60 seconds. The first measurement was performed after a 10-minute period of accommodation while the animal was quiet. Drugs were intravenously (IV) administered at T0. Thermal nociception was recorded at −30, −15, −5, 5, 10, 15, 30, 45, 60, 90, 120, 180, 240, 300, 360, and 420 minutes (study 2A). […] The maximum possible effect (MPE%) was calculated based on the following equation: [drawing 2]
The pharmacological model was applied to the investigated drug effects using the maximum likelihood expectation maximization algorithm implemented in WinNonlin (Version 5.1; Pharsight, Princeton, NJ). A standard error variance model was defined as: [drawing 4] where yi is the ith predicted value from the pharmacological model. All model parameters were assumed to be log-normally distributed. Model selection was based on goodness-of-fit criteria, which included the convergence criterion (CV%), the Akaike information criterion, the estimation criterion value for the maximum likelihood method, and the visual inspection of predicted vs observed and residual plots. Estimated parameters for dose–effect relationships are expressed as mean (CV%).
Thermal nociception was measured during 420 minutes after the drug administration. Tmax was determined for each drug.
Thermal nociception was performed to assess the ED50 at the Tmax previously observed in study 2A.

[8] = system: guinea pig ileum (mu-opioid receptor); design: method as in PMID 27035422; conditions: mean ± SEM, read-out: Opioid activity (IC50) GPI; cited from earlier work
[9] = target: δ-opioid receptor; design: method as in PMID 27035422; conditions: mean ± SEM; read-out: Binding affinity (Ki) δ-opioid receptor; cited from earlier work
[10] = target: NOP receptor; design: method as in PMID 27035422; conditions: mean ± SEM; read-out: Binding affinity (Ki) NOP receptor; cited from earlier work
[11] = IV, SN-CCI rats, sigmoidal Emax model, mean (CV%)

Row | Structure (SMILES) | ED50 ([1]; Inspiratory time (TI) ED50, IV) [µmol/kg] | ED50 ([1]; Minute volume (VM) ED50, IV) [µmol/kg] | Time after injection at which significant increase in TI started [2] [min] | Inspiratory time E0 [2] | Inspiratory time Emax [2] | Peak of respiratory effects (time) [2] [min] | TI, AUC method, in comparison to controls [2] | Effect on expiratory time (TE) versus baseline, time-course [2] | Persistence of effects on cold hyperalgesia after injection [3] | Cold hyperalgesia Tmax (time of peak effect) ([3]; SN-CCI rats) [min] | Cold hyperalgesia E0 (baseline effect) [3, 11] | Cold hyperalgesia Emax [3, 11] | Tmax ([1]; 0.34 μmol/kg) [h] | Effect on minute volume (VM) versus baseline, time-course [2] | Blood–brain barrier transport mechanism [6] | further results
1 | COc1cccc(C2(O)CCCCC2CN(C)C)c1 (stereo not drawn) [Tramadol, Tramadol hydrochloride, reference compound] | 50.9 | 50 | 180 | 0.006 (14.7) s | 0.17 (34.6) s | 30 | not | did not exhibit significant effects | 60 min | 5 | −26.4 (21.6) % | −92 (5.6) % |  |  |  | Tmax [1]: 0.5 h; VM, AUC method, compared to controls ([2]; IV 17.62 μmol/kg, P < 0.05): significantly decreased; ED50 ([3]; Rattus norvegicus, IV, SN-CCI rats, cold-plate test at Tmax, sigmoidal Emax model, mean (CV%)): 12.1 µmol/kg; Benefit-to-respiratory toxicity ratio, neuropathic pain (ED50 ratio) [4]: 0.24
2 | CC[C@H](C)[C@H](NC(=O)[C@H](CCCNC(=N)N)NC(=O)[C@H](Cc1ccc(O)cc1)NC(=O)[C@H](Cc1ccc(O)cc1)NC(=O)[C@H](CCCNC(=N)N)NC(=O)CCN1Cc2ccccc2CC(NC(=O)[C@@H](CCCNC(=N)N)NC(=O)[C@@H](N)Cc2c(C)cc(O)cc2C)C1=O)C(=O)N[C@@H](CCCCN)C(N)=O (stereo partly drawn) [KGNOP1, H-Dmt-D-Arg-Aba-βAla-Arg-Tyr-Tyr-Arg-Ile-Lys-NH2] (H-[Dmt][dR][X1]RYYRIK-NH2) | 0.63 | 0.57 |  | 0.06 (13.1) s | 0.16 (16.1) s | 180 | not | significantly decreased |  |  |  |  | 3 | increased | transported by active mechanisms and not through passive diffusion | VT, AUC method, in comparison to morphine-treated rats ([2]; IV 0.34 μmol/kg, P < 0.05): significantly decreased; TE, AUC method, in comparison to morphine- and tramadol-treated rats ([2]; IV 0.34 μmol/kg, P < 0.05 and P < 0.01): significantly decreased; Stability against enzymatic degradation [5]: has stability against enzymatic degradation; Blood–brain barrier penetration [6]: able to penetrate the blood–brain barrier
3 | CN1CC[C@]23c4c5ccc(O)c4O[C@H]2[C@@H](O)C=C[C@H]3[C@H]1C5 [Morphine, Morphine sulfate, reference compound] | 12.2 | 10.6 | 5 | 0.006 (11.5) s | 0.16 (5.9) s |  |  | did not exhibit significant effects |  |  |  |  |  | decreased |  | Thermal nociception Emax ([7]; MPE%, mean (CV%)): 100 (5.1) %; Thermal nociception E0 (baseline effect) ([7]; * fixed value): 0* %; ED50 ([7]; Rattus norvegicus, hot-plate test at Tmax, mean (CV%)): 14.7 µmol/kg; Effect on tidal volume (VT) versus baseline, time-course ([2]; IV 17.52 μmol/kg, at 5, 90, 120, 180, 240, 300 and 360 min): reduction
4 | Cc1cc(O)cc(C)c1C[C@H](N)C(=O)N[C@H](CCCNC(=N)N)C(=O)NC1Cc2ccccc2CN(CCC(N)=O)C1=O (stereo partly drawn) [KGOP1, H-Dmt-D-Arg-Aba-βAla-NH2] | 0.52 | 0.66 |  | 0.029 (9.7) s | 0.15 (15.1) s | 240 | not | significantly decreased |  |  |  |  | 4 | increased | transported by active mechanisms and not through passive diffusion | IC50 [8]: 0.8 ± 0.1 nM; Ki [9]: 17 ± 0.3 nM
5 | CC[C@H](C)[C@H](NC(=O)[C@H](CCCNC(=N)N)NC(=O)[C@H](Cc1ccc(O)cc1)NC(=O)[C@H](Cc1ccc(O)cc1)NC(=O)[C@H](CCCNC(=N)N)NC(C)=O)C(=O)N[C@@H](CCCCN)C(N)=O [KGNOP3, Ac-Arg-Tyr-Tyr-Arg-Ile-Lys-NH2] |  |  |  |  |  |  |  |  | […] | 5 | −20.1 (20.7) % | −76 (5.1) % |  |  | transported by active mechanisms and not through passive diffusion | Cold hyperalgesia ED50 ([3]; IV, SN-CCI rats, cold-plate test at Tmax, sigmoidal Emax model, mean (CV%)): 0.32 μmol/kg and 0.29 (9) μmol/kg; Ki [10]: […]
